Measured values reported in PMC6572064, “Discovery of 2-(1-(3-(4-Chloroxyphenyl)-3-oxo- propyl)pyrrolidine-3-yl)-1H-benzo[d]imidazole-4-carboxamide: A Potent Poly(ADP-ribose) Polymerase (PARP) Inhibitor for Treatment of Cancer” (Molecules, 2019).
Read-outs that look alike come from different tables or passages of the source.

Tests used:
PARP-1 = target: T1, PARP-1 (Homo sapiens, UniProt P09874); test: PARP-1 inhibition assay (PARP-1 Chemiluminescent Assay Kit, BPS Bioscience); type: biochemical; conditions: 10 nM compound
T1 construct: purchased BPS Bioscience 80569
T1 sequence (P09874 whole entry): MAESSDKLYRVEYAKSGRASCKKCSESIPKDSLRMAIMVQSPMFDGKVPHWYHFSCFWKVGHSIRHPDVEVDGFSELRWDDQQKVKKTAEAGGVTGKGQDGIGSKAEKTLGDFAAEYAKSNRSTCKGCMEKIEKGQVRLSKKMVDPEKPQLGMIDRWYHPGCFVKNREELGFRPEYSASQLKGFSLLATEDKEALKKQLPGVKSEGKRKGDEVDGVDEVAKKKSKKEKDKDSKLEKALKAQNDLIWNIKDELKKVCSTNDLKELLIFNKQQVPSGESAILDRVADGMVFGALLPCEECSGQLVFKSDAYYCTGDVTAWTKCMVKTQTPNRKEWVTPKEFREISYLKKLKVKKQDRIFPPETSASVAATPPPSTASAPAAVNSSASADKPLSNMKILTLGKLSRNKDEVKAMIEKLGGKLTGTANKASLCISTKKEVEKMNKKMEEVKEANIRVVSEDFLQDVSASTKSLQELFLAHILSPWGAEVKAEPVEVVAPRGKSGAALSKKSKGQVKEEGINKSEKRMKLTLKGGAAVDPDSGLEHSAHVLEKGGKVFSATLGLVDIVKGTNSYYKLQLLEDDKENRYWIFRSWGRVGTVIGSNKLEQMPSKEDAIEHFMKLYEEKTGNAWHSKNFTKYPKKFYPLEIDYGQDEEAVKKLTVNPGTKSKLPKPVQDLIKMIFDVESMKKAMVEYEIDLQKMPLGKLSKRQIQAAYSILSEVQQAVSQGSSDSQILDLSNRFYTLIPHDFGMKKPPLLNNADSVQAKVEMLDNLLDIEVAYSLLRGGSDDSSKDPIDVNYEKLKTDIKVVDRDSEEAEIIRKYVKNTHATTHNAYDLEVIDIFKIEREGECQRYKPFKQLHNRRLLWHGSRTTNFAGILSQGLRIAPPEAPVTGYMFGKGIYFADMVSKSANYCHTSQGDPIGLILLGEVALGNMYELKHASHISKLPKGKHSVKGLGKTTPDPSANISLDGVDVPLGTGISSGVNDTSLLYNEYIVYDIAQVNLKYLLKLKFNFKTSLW
Experimental: (§1) The PARP-1 and PARP-2 inhibition assays were performed in outsourcing, by a CRO company, Shanghai Medicilon Inc. (Shanghai, China). […] Briefly, PARP-1 or PARP-2 biotinylated substrate was incubated with compounds or solvent control at varying concentrations and an assay buffer containing the PARP-1 or PARP-2 enzyme.

PARP-2 = target: T2, PARP-2 (Homo sapiens, UniProt Q9UGN5); test: PARP-2 inhibition assay (PARP-2 Chemiluminescent Assay Kit, BPS Bioscience); type: biochemical; conditions: 10 nM compound
T2 construct: purchased BPS Bioscience 80552
T2 sequence (Q9UGN5 whole entry): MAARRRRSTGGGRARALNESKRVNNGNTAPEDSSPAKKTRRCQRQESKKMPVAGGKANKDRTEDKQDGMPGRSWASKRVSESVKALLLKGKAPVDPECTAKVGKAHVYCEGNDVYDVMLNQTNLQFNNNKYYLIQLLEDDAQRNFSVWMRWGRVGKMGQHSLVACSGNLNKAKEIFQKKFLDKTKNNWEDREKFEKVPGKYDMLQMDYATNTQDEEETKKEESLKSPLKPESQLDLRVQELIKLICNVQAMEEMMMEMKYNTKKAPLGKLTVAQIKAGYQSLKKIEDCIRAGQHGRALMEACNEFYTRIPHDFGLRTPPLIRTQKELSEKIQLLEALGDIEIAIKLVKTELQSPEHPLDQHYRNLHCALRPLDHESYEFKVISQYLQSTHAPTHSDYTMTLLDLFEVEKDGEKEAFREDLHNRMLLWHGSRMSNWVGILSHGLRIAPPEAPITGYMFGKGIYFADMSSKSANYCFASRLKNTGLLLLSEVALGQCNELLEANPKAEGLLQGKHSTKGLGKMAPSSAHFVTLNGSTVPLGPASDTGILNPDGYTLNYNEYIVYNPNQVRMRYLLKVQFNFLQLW
Experimental: as §1

[1] = system: MDA-MB-436 (a BRCA-1-mutated breast cancer cell line); test: Cell proliferation assay, three-day, CellTiter-Glo, MDA-MB-436; type: cell-based; conditions: for inhibition at 0.00508 µM / inhibition at 0.0152 µM / inhibition at 0.0457 µM / inhibition at 0.41 µM / inhibition at 1.23 µM / inhibition at 3.7 µM / inhibition at 11.11 µM / inhibition at 33.33 µM / inhibition at 100 µM / IC50: Homo sapiens; for inhibition at 0.00508 µM: MDA-MB-436, MDA-MB-436, Conc. 0.00508 uM; for inhibition at 0.0152 µM: MDA-MB-436, MDA-MB-436, Conc. 0.0152 uM; for inhibition at 0.0457 µM: MDA-MB-436, MDA-MB-436, Conc. 0.0457 uM; for inhibition at 0.41 µM: MDA-MB-436, MDA-MB-436, Conc. 0.41 uM; for inhibition at 1.23 µM: MDA-MB-436, MDA-MB-436, Conc. 1.23 uM; for inhibition at 3.7 µM: MDA-MB-436, MDA-MB-436, Conc. 3.70 uM; for inhibition at 11.11 µM: MDA-MB-436, MDA-MB-436, Conc. 11.11 uM; for inhibition at 33.33 µM: MDA-MB-436, MDA-MB-436, Conc. 33.33 uM; for inhibition at 100 µM: MDA-MB-436, MDA-MB-436, Conc. 100.00 uM
Experimental: (§2) A three-day assay was conducted. A cell suspension was prepared. Cell density was counted by an automated cell counter and then diluted to the required density, according to seeding density. 50 μL cells were seeded into 384-well plate in growth medium according to the plate map. The cells were incubated at 37 °C, 5% CO2 overnight.
(§3) 200× compound solution in DMSO was prepared and diluted with growth medium to 26× final concentration by addition of 26 μL 200× compounds to 174 μL growth medium. Then 2 μL of diluted compound solution was added to cells and the cell was incubated at 37 °C, 5% CO2 for 72 h.
(§4) The assay plate was equilibrated to room temperature prior to measurement. 15 μL of CellTiter-Glo Reagent was added into each well and the contents were mixed for 2 min on an orbital shaker to induce cell lysis. The cells were incubated at room temperature for 60 min to stabilize luminescent signal. Luminescence was recorded on the Envision system.

[2] = system: CAPAN-1 (a BRCA-2-mutated pancreatic cancer cell line); test: Cell proliferation assay, three-day, CellTiter-Glo, CAPAN-1; type: cell-based; conditions: for IC50 / inhibition at 0.00508 µM / inhibition at 0.0152 µM / inhibition at 0.0457 µM / inhibition at […] / inhibition at 0.41 µM / inhibition at 1.23 µM / inhibition at 3.7 µM / inhibition at 11.11 µM / inhibition at 33.33 µM / inhibition at 100 µM: Homo sapiens; for inhibition at 0.00508 µM: CAPAN-1, 0.00508 uM; for inhibition at 0.0152 µM: CAPAN-1, 0.0152 uM; for inhibition at 0.0457 µM: CAPAN-1, 0.0457 uM; for inhibition at […]: CAPAN-1, 0.14 uM; for inhibition at 0.41 µM: CAPAN-1, 0.41 uM; for inhibition at 1.23 µM: CAPAN-1, 1.23 uM; for inhibition at 3.7 µM: CAPAN-1, 3.70 uM; for inhibition at 11.11 µM: CAPAN-1, 11.11 uM; for inhibition at 33.33 µM: CAPAN-1, 33.33 uM; for inhibition at 100 µM: CAPAN-1, 100.00 uM
Experimental: as §2, §3, §4

In the case of `NC(=O)c1cccc2[nH]c(C3CCN(CC(=O)c4ccccc4)C3)nc12` (stereo not shown) [Compound 5cd, 2-(1-(2-Oxo-2-phenylethyl)pyrrolidin-3-yl)-1H-benzo[d]imidazole-4-carboxa-mide], the inhibition at 0.01 µM (PARP-1; supplement sheet, read-out: 10 nM inhibition% PAPR-1) is reported as -1.05%, the inhibition at 0.01 µM (PARP-1; read-out: PARP-1 Inhibition % (10 nM)) is reported as -1.1% and the inhibition at 0.01 µM (PARP-2; supplement sheet, read-out: 10 nM inhibition% PAPR-2) is reported as 7.18%. For the same compound, the inhibition at 0.01 µM (PARP-2; read-out: PARP-2 Inhibition % (10 nM)) was 7.2%, the inhibition at 0.00508 µM ([1]; replicate 1, read-out: Inh % 1) was -0.654% and the inhibition at 0.00508 µM ([1]; replicate 2, read-out: Inh % 2) was -7.1%. It also gave an inhibition at 0.0152 µM ([1]; replicate 1, read-out: Inh % 1) of -3.7%, an inhibition at 0.0152 µM ([1]; replicate 2, read-out: Inh % 2) of -6.1% and an inhibition at 0.0457 µM ([1]; replicate 1, read-out: Inh % 1) of -6.8%. For the same compound, the inhibition at 0.0457 µM ([1]; replicate 2, read-out: Inh % 2) was -12.7%, the inhibition at 0.41 µM ([1]; replicate 1, read-out: Inh % 1) was -13.5% and the inhibition at 0.41 µM ([1]; replicate 2, read-out: Inh % 2) was -13.2%. For the same compound, the inhibition at 1.23 µM ([1]; replicate 1, read-out: Inh % 1) was -16.5%, the inhibition at 1.23 µM ([1]; replicate 2, read-out: Inh % 2) was -19% and the inhibition at 3.7 µM ([1]; replicate 1, read-out: Inh % 1) was -10.3%. The inhibition at 3.7 µM ([1]; replicate 2, read-out: Inh % 2) was -11.7%, the inhibition at 11.11 µM ([1]; replicate 1, read-out: Inh % 1) was 0.3% and the inhibition at 11.11 µM ([1]; replicate 2, read-out: Inh % 2) was -11%. For the same compound, the inhibition at 33.33 µM ([1]; replicate 1, read-out: Inh % 1) was 35.4%, the inhibition at 33.33 µM ([1]; replicate 2, read-out: Inh % 2) was 16.5% and the inhibition at 100 µM ([1]; replicate 1, read-out: Inh % 1) was 68.9%. It also gave an inhibition at 100 µM ([1]; replicate 2, read-out: Inh % 2) of 66.2%, an IC50 ([1]; MDA-MB-436, 72 h, CellTiter-Glo, read-out: MDA-MB-436 IC50) of 55 µM and an IC50 ([1]; MDA-MB-436, 72 h, supplement Summary sheet, read-out: IC50) of 55 µM. The IC50 ([1]; MDA-MB-436, curve fit list, no unit in the cell, concentration in uM, read-out: IC50) was 55 µM, the LogIC50 ([1]; MDA-MB-436, curve fit on Log (uM) concentrations) was 1.74 and the Bottom ([1]; MDA-MB-436, curve fit parameter (Inh %)) was -10.87. For the same compound, the Top ([1]; MDA-MB-436, curve fit parameter (Inh %), '= 100.0' is a constrained value) was “= 100.0”, the LogIC50 ([2]; CAPAN-1, curve-fit output, Log (uM)) was 1.917 and the IC50 ([2]; CAPAN-1, 72 h, CellTiter-Glo, read-out: CAPAN-1 IC50) was 82.5 µM. It also gave an inhibition at 0.00508 µM ([2]; replicate 1, read-out: Inh % 1) of 4.6%, an inhibition at 0.00508 µM ([2]; replicate 2, read-out: Inh % 2) of -0.8% and an inhibition at 0.0152 µM ([2]; replicate 1, read-out: Inh % 1) of 2.6%. For the same compound, the inhibition at 0.0152 µM ([2]; replicate 2, read-out: Inh % 2) was -1.6%, the inhibition at 0.0457 µM ([2]; replicate 1, read-out: Inh % 1) was 0.6% and the inhibition at 0.0457 µM ([2]; replicate 2, read-out: Inh % 2) was -4.7%. For the same compound, the inhibition at […] ([2]; replicate 1, read-out: Inh % 1) was 3.7%, the inhibition at […] ([2]; replicate 2, read-out: Inh % 2) was -1.1% and the inhibition at 0.41 µM ([2]; replicate 1, read-out: Inh % 1) was 13.1%. For the same compound, the inhibition at 0.41 µM ([2]; replicate 2, read-out: Inh % 2) was 3.2%, the inhibition at 1.23 µM ([2]; replicate 1, read-out: Inh % 1) was 2.1% and the inhibition at 1.23 µM ([2]; replicate 2, read-out: Inh % 2) was 3.2%. The inhibition at 3.7 µM ([2]; replicate 1, read-out: Inh % 1) was 4%, the inhibition at 3.7 µM ([2]; replicate 2, read-out: Inh % 2) was 4.4% and the inhibition at 11.11 µM ([2]; replicate 1, read-out: Inh % 1) was 1%. It also gave an inhibition at 11.11 µM ([2]; replicate 2, read-out: Inh % 2) of 4.4%, an inhibition at 33.33 µM ([2]; replicate 1, read-out: Inh % 1) of 17.9% and an inhibition at 33.33 µM ([2]; replicate 2, read-out: Inh % 2) of 8.7%. For the same compound, the inhibition at 100 µM ([2]; replicate 1, read-out: Inh % 1) was 68%, the inhibition at 100 µM ([2]; replicate 2, read-out: Inh % 2) was 55.2% and the IC50 ([2]; CAPAN-1, 72 h, supplement Summary sheet, read-out: IC50) was 82.5 µM. It also gave an IC50 ([2]; CAPAN-1, curve-fit output, concentrations in uM, read-out: IC50) of 82.5 µM.
